Values of other authors in US11872302B2, “Product for dyeing keratinous material, containing aminosilicone, a chromophoric compound and ester oil” (Henkel AG & Co. KGaA, priority 2019, dated 2024).

Details: 25° C.

solubility in water | solubility in water, in words | SMILES
above 40 g/L | – | O=[N+]([O-])c1cc([N+](=O)[O-])c2ccc(S(=O)(=O)O)cc2c1O [Acid Yellow 9, 8-hydroxy-5,7-dinitro-2-naphthalenesulfonic acid]
more than 20 wt. % | – | CCN(Cc1cccc(S(=O)(=O)O)c1)c1ccc(C(=C2C=CC(=[N+](CC)Cc3cccc(S(=O)(=O)O)c3)C=C2)c2ccccc2S(=O)(=O)[O-])cc1 [Acid Blue 9]
– | highly soluble in water | O=C(O)C1=NN(c2ccc(S(=O)(=O)O)cc2)C(=O)C1N=Nc1ccc(S(=O)(=O)O)cc1 (stereo not shown) [Acid Yellow 23, 4,5-dihydro-5-oxo-1-(4-sulfophenyl)-4-((4-sulfophenyl)azo)-1H-pyrazole-3-carboxylic acid]

SMILES | solubility in water | solubility in water, in words
O=S(=O)(O)c1ccc(N=Nc2c(O)ccc3ccccc23)cc1 [Acid Orange 7, 4-[(2-hydroxy-1-naphthyl)azo]benzene sulphonate] | more than 7 g/L | –
